The record followed here is patent publication US6037463A, “Enzymatic RNA molecules that cleave mutant N-RAS” (priority 1996, dated 2000).

In series [1] the test system is synthetic substrate, wild type N-ras mRNA. Briefly: Melting curves (Tm) of ribozyme-substrate complexes, wild type. The note with it: ribozyme-substrate complex. It counts as binding. The protocol: (§1) In one investigation, short synthetic oligoribonucleotides of 15 nucleotides chain length served as substrates. Cleavage kinetics of all ribozymes were carried out under Michaelis-Menten conditions. […] Ribozymes RE990 or RE1035 against the wild type mRNA as well as their substrate complexes on the other hand reveal Tm values of approximately 52° C.
(§2) UV temperature curves were measured at 260 nm using a Varian Cary-1 UV/VIS-spectrophotometer. The target was prepared by dissolving the ribozyme in a buffer containing 50 mM Tris-Cl (pH 7.5) and 10 mM MgCl2. The sample was transferred in a cuvette with a 10 mm path length. The ribozyme was denatured at 80° C. for 5 min, and subsequently the substrate RNA and substrate DNA were added and the whole mixture was renatured at 1° C./min. Melting curves at 260 nm were performed by heating the solution in the cuvette at 0.75° C./min and acquiring absorbance data every 0.5° C. step until 80° C. was reached. The Tm value and thermodynamic parameters of transition were obtained by fitting data of a two transition state model with the GraFit version 2.0 from Sigma Chemicals Co. software using the method of Marky and Breslauer, Biopolymers 26:1601 (1987).

In series [2] the test system is in vitro transcribed wild type N-ras mRNA. Briefly: Kinetics with in vitro transcribed RNA (single-turnover), wild type. It is filed as biochemical. The note with it: for cleavage of wild type N-ras mRNA: ribozymes directed against mutant mRNA. An excerpt: (§3) In a further investigation, RNA containing the mutant or wild type N-ras sequence from transcription initiation site to termination site was synthesized by in vitro transcription. In order to achieve efficient mRNA cleavage, the target sequence of the substrate (NUX-triplet, N=A,G,C,U; X=C,A,U) is not allowed to be double-stranded or part of a stable hairpin. The in vitro transcribed RNA served as substrate for five ribozymes mentioned above. The catalytic efficiency was examined under "single-turnover" conditions to detect the splice products.
(§4) For in vitro transcription, pMS5-NRAS, pMS5A-NRAS and pMS5B-NRAS were linearized by EcoRI digestion, phenol-extracted and ethanol-precipitated. Transcription was carried out in a 100 μl mixture containing 50 ng/μl linearized plasmid DNA, 10 mM DTT, 40 mM Tris-Cl (pH 7.5), 50 mM NaCl, 8 mM MgCl2, 2 mM spermidine, 500 μM rNTP's, 0.8 U/μl RNAse-lnhibitor, 2 μCi/μl [α-^32 P]-ATP and 2.5 U/μl T7 RNA Polymerase. A one-hour incubation at 37° C. was followed by the addition of 25 Units of DNAsel, and the mixture was incubated for an additional 30 min at 37° C. After subsequent phenol extraction, the aqueous phase was transferred into a CENTRICON-100 tube and centrifuged at 3,400 U/min for 30 min. The RNA-solution was checked for homogeneity by UV absorption and 6% analytical PAGE (8 M urea). The solution was stored frozen at -20° C.
(§5) The cleavage efficiency under "single-turnover" conditions was determined in a volume of 10 μl using 20-1200 nM ribozyme, 50 mM Tris-Cl (pH 7.5) and 10 mM MgCl2. The reaction was initiated by addition of RNA substrate to a final concentration of 10 nM substrate over 1 h at 37° C. The reaction was stopped by mixing 8 μl of stop solution to each reaction. The reaction was analyzed on 6% denaturing polyacrylamide gels and scanned on a Molecular Dynamics Phosphor Imager. The single turnover kcat /Km values were determined as described by Heidenreich et al., J. Biol. Chem. 267:1904 (1992).

The test system of series [3] is synthetic oligoribonucleotide substrate of 15 nucleotides, wild-type N-ras mRNA (codon 64, 89 or 103). Put plainly: Kinetics with synthetic substrates (multiple turnover), ribozymes against wild-type N-ras. It counts as biochemical. The note with it: for Km / kcat: Table IA, Michaelis-Menten conditions; for kcat: 37° C., 10 mM MgCl2. The protocol:
as §1
(§6) Kinetic constants Km and kcat were determined from Eadie-Hofstee plots carried out with 5'-^32 P-labeled substrate. The RNA substrate was labeled by reaction with T4 polynucleotide kinase and [γ-^32P]-ATP. 5'-end labeled substrate was purified from [γ-^32 P]-ATP with CENTRICON-3 tubes. Ribozyme and substrate were heated separately for 1 min at 75° C. in 50 mM Tris-Cl (pH 7.5). After cooling to 37° C. for 5 min, 100 mM MgCl2 were added to a final concentration of 10 mM, and the solution was incubated for an additional 5 min at 37° C. Multiple turnover reactions were carried out in a volume of 100 μl with concentrations of substrate between 20-500 nM and ribozyme concentrations from 2 to 5 nM in 50 mM Tris-Cl (pH 7.5) and 10 mM MgCl2 at 37° C. Reactions were initiated by addition of ribozyme. The reaction was stopped by mixing the ribozymes with an equal volume of stop solution (8 M urea, 25 mM EDTA). The cleavage reactions were analyzed on 20% denaturing polyacrylamide gels (8 M urea) and scanned on a Molecular Dynamic Phosphorimaging system.

For series [4], the system named is synthetic substrate, mutant N-ras mRNA (codon 13). Put plainly: Melting curves (Tm) of ribozyme-substrate complexes, mutant. It is filed as binding. The following applies: ribozyme-substrate complex. As to the method: as §1, §2
For series [5], the system named is in vitro transcribed mutant N-ras mRNA (codon 13). Briefly: Kinetics with in vitro transcribed RNA (single-turnover), mutant. It counts as biochemical.
From the text: as §3, §4, §5

Series [6] has as its system synthetic oligoribonucleotide substrate of 15 nucleotides, mutant N-ras mRNA (codon 13). Briefly: Kinetics with synthetic substrates (multiple turnover), ribozymes against mutant N-ras. It is filed as biochemical. The following applies: Table IA, Michaelis-Menten conditions; for kcat: 37° C., 10 mM MgCl2. As to the method: as §1, §6
Series [7] concerns N-ras transformed NIH3T3 cells (mutation in codon 13, clones 2 and 4). Put plainly: Colony-forming soft agar assay, retrovirally mediated ribozyme. The following applies: beyond the effect of the retroviral vector alone. It counts as cell-based. As to the method:
The cells of the constitutively N-ras expressing clones 2 and 4 (mutation in codon 13) were subcultured in soft agar using the colony-forming agar assay of Cowley et al., Cell 77:841 (1994). The colony-forming agar assay is a semisolid method in which cells are suspended in a 0.3% agar upper layer and plated out over a 0.5% agar lower layer in Petri dishes. The lower layer was prepared by heating a 2.5% solution of agar in deionized water. After cooling the agar to 45° C. in a water bath, an agar mix of 0.5% agar was prepared by combining 25 ml of 1×DMEM medium, 10 ml of 2.5% agar, 10 ml of 2×DMEM medium, and 5 ml of fetal calf serum. One milliliter samples of the agar mix were pipetted into 35 mm Petri culture dishes and stored at 4° C. for 30 minutes.
The upper layer was prepared by adding 0.2 ml of agar mix to 1 ml of about 5×10^4 cells/ml suspension, and adding DMEM medium to a total volume of 1.7 ml. One milliliter samples were pipette onto bottom agar layers and incubated for 14-21 days at 37° C. […]
The soft agar cultures were incubated for […] at 37° C. and 5% CO2. The reduction in transformed N-ras NIH3T3 cells was analyzed by counting cell clusters under a microscope. The soft agar preparations were set up in quadruplicate for each construct and the mean values were calculated, as presented in Table VII.

[8] abbreviates: Table IIA, single-turnover, transcribed N-ras mRNA.
[9] abbreviates: Table III, modified ribozymes, transcribed N-ras mRNA.
Setting [10] is: Table IIB, single-turnover, transcribed RNA.

As to “RE1035: ribozyme against codon 103 of the wild-type N-ras mRNA, SEQ ID NO:16 (AGUCUUUCUGAUGAGCGUUAGCGAAACUCGCU; chemistry not given here)”, the Tm result in series [1] was “approximately 52 °C”. Besides, the Km in series [2] (setting [8]) came out at 0.425 µM; in series [3], 0.277 µM. Further, the catalytic constant (kcat) is 44 10^6 × s^-1 in series [2] (setting [8]) and 0.013 s⁻¹ in series [3].

Consider “5'-CCAACACCUGAUGAGCGUUAGCGAAACCUGCU-3' (chemistry not given here)”, for which the Tm result in series [4] was “approximately 48 °C”. Besides, the values for the Michaelis-Menten constant (Km) in series [5] (setting [8]), in series [5] (setting [9]) and in series [6] were 0.071 µM, 0.071 µM and 0.082 µM, respectively. For the same substance, the catalytic constant (kcat) is 266 10^6 × s^-1 in series [5] (setting [8]), 266 10^6 × s^-1 in series [5] (setting [9]) and 0.015 s⁻¹ in series [6]. In addition, the “cleavage of wild type N-ras mRNA” value in series [2] is recorded as “do not cleave”. In addition, the “reversion of the malignant phenotype” value in series [7] is reported as “about 18%”.

Turning to “RE990: ribozyme against codon 89 of the wild-type N-ras mRNA, SEQ ID NO:15 (CGCAAAUCUGAUGAGCGUUAGCGAAACUUGCU; chemistry not given here)”, in series [1], the Tm result is “approximately 52 °C”. Also, in series [2] (setting [8]), the Km worked out at 0.234 µM and the kcat was 72 10^6 × s^-1. In series [3], the “kcat /Km” value is “much less catalytic efficiency”, the Km is 0.404 µM and the turnover number (kcat) was found to be 0.004 s⁻¹.

Take “RE917: ribozyme against codon 64 of the wild-type N-ras mRNA, SEQ ID NO:14 (GGCACUGCUGAUGAGCGUUAGCUAAACUCUUC; chemistry not given here)”: the Km was determined as 0.063 µM in series [2] (setting [8]), 0.063 µM in series [2] (setting [10]), 0.063 µM in series [2] (setting [9]) and 0.078 µM in series [3]. For the same substance, the figures for the kcat in series [2] (setting [8]), in series [2] (setting [9]) and in series [3] were 59 10^6 × s^-1, 59 10^6 × s^-1 and 0.013 s⁻¹, respectively. Moreover, the kreact in series [2] (setting [10]) is listed as 59 10^6 s^-1.

In the case of “5'-UCCCAACCUGAUGAGCGUUAGCGAAACACCUG-3' (chemistry not given here)”, the Tm result in series [4] is “approximately 48 °C”. In addition, the Km in series [5] (setting [8]) was 0.113 µM; in series [5] (setting [10]), 0.113 µM; in series [5] (setting [9]), 0.113 µM; in series [6] it was 0.065 µM. The kcat in series [5] (setting [8]) was 137 10^6 × s^-1; in series [5] (setting [9]) it was 137 10^6 × s^-1; in series [6], 0.012 s⁻¹. Also, in series [5] (setting [10]), the kreact is reported as 137 10^6 s^-1. Moreover, the “cleavage of wild type N-ras mRNA” value in series [2] is “do not cleave”.
